In US11053204B2, “Pyrimidinyloxy benzene derivatives as herbicides” (FMC Corporation, priority 2015, dated 2021):

How the values were obtained:
Type in all cases: in vivo
[1] = system: galium (catchweed bedstraw, Galium aparine); test: Test C postemergence, plant response rating
Procedure, shortened: (§1)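 Greenhouse plants rated visually against untreated controls 13–15 d after treatment, scale 0 = no effect to 100 = complete control. Postemergence sprays went onto potted plants 2–18 cm tall (1–4 leaves); preemergence sprays onto soil freshly sown in loam–sand or silt loam, chemicals formulated in non-phytotoxic solvent with surfactant.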

[2] = system: waterhemp (common waterhemp, Amaranthus rudis); test: Test C postemergence, plant response rating; conditions: for Waterhemp plant response rating: 125 g ai/ha, scale 0 to 100 (0 no effect, 100 complete control)
Procedure, shortened: as §1

[3] = system: wheat (winter wheat, Triticum aestivum); test: Test C postemergence, plant response rating
Procedure, shortened: as §1

[4] = system: chickweed (common chickweed, Stellaria media); test: Test C postemergence, plant response rating
Procedure, shortened: as §1

[5] = system: ryegrass, Italian (Italian ryegrass, Lolium multiflorum); test: Test C postemergence, plant response rating
Procedure, shortened: as §1

[6] = system: blackgrass (Alopecurus myosuroides); test: Test C postemergence, plant response rating
Procedure, shortened: as §1

[7] = system: foxtail, giant (giant foxtail, Setaria faberii); test: Test C postemergence, plant response rating
Procedure, shortened: as §1

soybean (Glycine max) = test: Test C postemergence, plant response rating
Procedure, shortened: as §1

[8] = system: oilseed rape (Brassica napus); test: Test C postemergence, plant response rating
Procedure, shortened: as §1

[9] = system: galium (catchweed bedstraw, Galium aparine); test: Test A postemergence, visual injury rating; conditions: 0 to 100 scale, 0 is no effect, 100 is complete control, approximately 10 days
Procedure, shortened: (§2)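 Injury scores run from 0, no effect, to 100, complete control, judged by eye against untreated plants roughly 10 days after treatment. Chemicals carried a surfactant in a non-phytotoxic solvent and went onto loam–sand soil preemergence or onto one- to two-leaf seedlings postemergence.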

[10] = system: barnyardgrass (Echinochloa crus-galli); test: Test A postemergence, visual injury rating; conditions: 0 to 100 scale, 0 is no effect, 100 is complete control, approximately 10 days
Procedure, shortened: as §2

kochia (Kochia scoparia) = test: Test A postemergence, visual injury rating; conditions: 0 to 100 scale, 0 is no effect, 100 is complete control, approximately 10 days
Procedure, shortened: as §2

[11] = system: pigweed (Amaranthus retroflexus); test: Test A postemergence, visual injury rating; conditions: 0 to 100 scale, 0 is no effect, 100 is complete control, approximately 10 days
Procedure, shortened: as §2

[12] = system: Italian ryegrass (Lolium multiflorum); test: Test A postemergence, visual injury rating; conditions: 0 to 100 scale, 0 is no effect, 100 is complete control, approximately 10 days
Procedure, shortened: as §2

[13] = system: wheat (Triticum aestivum); test: Test A postemergence, visual injury rating; conditions: 0 to 100 scale, 0 is no effect, 100 is complete control, approximately 10 days
Procedure, shortened: as §2

[14] = system: blackgrass (Alopecurus myosuroides); test: Test A postemergence, visual injury rating; conditions: 0 to 100 scale, 0 is no effect, 100 is complete control, approximately 10 days
Procedure, shortened: as §2

[15] = system: ragweed (common ragweed, Ambrosia elatior); test: Test A postemergence, visual injury rating; conditions: 0 to 100 scale, 0 is no effect, 100 is complete control, approximately 10 days
Procedure, shortened: as §2

[16] = system: giant foxtail (Setaria faberii); test: Test A postemergence, visual injury rating; conditions: 0 to 100 scale, 0 is no effect, 100 is complete control, approximately 10 days
Procedure, shortened: as §2

corn (Zea mays) = test: Test A postemergence, visual injury rating; conditions: 0 to 100 scale, 0 is no effect, 100 is complete control, approximately 10 days
Procedure, shortened: as §2

[17] = 62 g ai/ha, scale 0 to 100 (0 no effect, 100 complete control)
[18] = 125 g ai/ha, scale 0 to 100 (0 no effect, 100 complete control)

O=C(CCC(F)(F)F)c1c(Br)cccc1Oc1ncc(Cl)cn1 [Compound 92]
Plant response rating, Galium ([1]; 16 g ai/ha, scale of 0 to 100): 80 | Plant response rating, Galium ([1]; 31 g ai/ha, scale 0 to 100): 85 | Galium plant response rating [1, 17]: 100 | Galium plant response rating [1, 18]: 100 | Plant response rating, Waterhemp ([2]; 16 g ai/ha, scale of 0 to 100): 80 | Plant response rating, Waterhemp ([2]; 31 g ai/ha, scale 0 to 100): 85 | Waterhemp plant response rating [2]: 100 | Plant response rating, Wheat ([3]; 16 g ai/ha, scale of 0 to 100): 0 | Plant response rating, Wheat ([3]; 31 g ai/ha, scale 0 to 100): 0 | Wheat plant response rating [3, 18]: 10 | Plant response rating, Chickweed ([4]; 16 g ai/ha, scale of 0 to 100): 100 | Plant response rating, Chickweed ([4]; 31 g ai/ha, scale 0 to 100): 100 | Chickweed plant response rating [4, 17]: 100 | Chickweed plant response rating [4, 18]: 100 | Plant response rating, Ryegrass, Italian ([5]; 16 g ai/ha, scale of 0 to 100): 10 | Plant response rating, Ryegrass, Italian ([5]; 31 g ai/ha, scale 0 to 100): 15 | Ryegrass, Italian plant response rating [5, 17]: 10 | Ryegrass, Italian plant response rating [5, 18]: 30 | Plant response rating, Blackgrass ([6]; 16 g ai/ha, scale 0 to 100): 5 | Plant response rating, Blackgrass ([6]; 31 g ai/ha, scale 0 to 100): 10 | Blackgrass plant response rating [6, 17]: 5 | Blackgrass plant response rating [6, 18]: 20 | Plant response rating, Foxtail, Giant ([7]; 16 g ai/ha, scale of 0 to 100): 10 | Plant response rating, Foxtail, Giant ([7]; 31 g ai/ha, scale 0 to 100): 20 | Foxtail, Giant plant response rating [7, 17]: 25 | Foxtail, Giant plant response rating [7, 18]: 50 | Plant response rating, Soybean (soybean (Glycine max); 16 g ai/ha, scale of 0 to 100): 30 | Plant response rating, Soybean (soybean (Glycine max); 31 g ai/ha, scale 0 to 100): 40 | Soybean plant response rating (soybean (Glycine max); [17]): 70 | Soybean plant response rating (soybean (Glycine max); [18]): 75 | Plant response rating, Oilseed Rape ([8]; 16 g ai/ha, scale of 0 to 100): 5 | Plant response rating, Oilseed Rape ([8]; 31 g ai/ha, scale 0 to 100): 50 | Oilseed Rape plant response rating [8, 17]: 50 | Oilseed Rape plant response rating [8, 18]: 70 | Galium plant response rating ([9]; 31 g ai/ha): 90 | Galium plant response rating ([9]; 125 g ai/ha): 100 | Barnyardgrass plant response rating ([10]; 31 g ai/ha): 40 | Barnyardgrass plant response rating ([10]; 125 g ai/ha): 100 | Kochia plant response rating (kochia (Kochia scoparia); 31 g ai/ha): 100 | Kochia plant response rating (kochia (Kochia scoparia); 125 g ai/ha): 100 | Pigweed plant response rating ([11]; 31 g ai/ha): 100 | Pigweed plant response rating ([11]; 125 g ai/ha): 100 | Ryegrass, Italian plant response rating ([12]; 31 g ai/ha): 0 | Ryegrass, Italian plant response rating ([12]; 125 g ai/ha): 50 | Wheat plant response rating ([13]; 31 g ai/ha): 0 | Wheat plant response rating ([13]; 125 g ai/ha): 20 | Blackgrass plant response rating ([14]; 31 g ai/ha): 10 | Blackgrass plant response rating ([14]; 125 g ai/ha): 50 | Ragweed plant response rating ([15]; 31 g ai/ha): 0 | Ragweed plant response rating ([15]; 125 g ai/ha): 20 | Foxtail, Giant plant response rating ([16]; 31 g ai/ha): 50 | Foxtail, Giant plant response rating ([16]; 125 g ai/ha): 100 | Corn plant response rating (corn (Zea mays); 31 g ai/ha): 10 | Corn plant response rating (corn (Zea mays); 125 g ai/ha): 40

O=C(CCC(F)(F)F)c1c(Cl)cccc1Oc1ncc(Cl)cn1 [Compound 107, 1-[2-chloro-6-[(5-chloro-2-pyrimidinyl)oxy]phenyl]-4,4,4-trifluoro-1-butanone]
pest or weed control at 16 g/ha ([1]; Galium, post-emergence, 16 g ai/ha, scale of 0 to 100): 75% | pest or weed control at 31 g/ha ([1]; Galium, post-emergence, 31 g ai/ha, scale 0 to 100): 80% | pest or weed control at 62 g/ha ([1]; Galium, post-emergence, 62 g ai/ha, scale 0 to 100 (0 no effect, 100 complete control)): 90% | pest or weed control at 125 g/ha ([1]; Galium, post-emergence, 125 g ai/ha, scale 0 to 100 (0 no effect, 100 complete control)): 95% | Plant response rating, Waterhemp ([2]; 16 g ai/ha, scale of 0 to 100): 95 | Plant response rating, Waterhemp ([2]; 31 g ai/ha, scale 0 to 100): 98 | Waterhemp plant response rating [2]: 100 | plant injury at 16 g/ha ([3]; Triticum aestivum, post-emergence, 16 g ai/ha, scale of 0 to 100): 5% | plant injury at 31 g/ha ([3]; Triticum aestivum, post-emergence, 31 g ai/ha, scale 0 to 100): 5% | plant injury at 125 g/ha ([3]; Triticum aestivum, post-emergence, 125 g ai/ha, scale 0 to 100 (0 no effect, 100 complete control)): 30% | plant injury at 62 g/ha ([3]; Triticum aestivum, post-emergence, rate not given, scale 0 to 100, read-out: Plant response rating, Wheat): 10% | pest or weed control at 16 g/ha ([4]; Stellaria media, post-emergence, 16 g ai/ha, scale of 0 to 100): 80% | pest or weed control at 31 g/ha ([4]; Stellaria media, post-emergence, 31 g ai/ha, scale 0 to 100): 90% | pest or weed control at 62 g/ha ([4]; Stellaria media, post-emergence, 62 g ai/ha, scale 0 to 100 (0 no effect, 100 complete control)): 98% | pest or weed control at 125 g/ha ([4]; Stellaria media, post-emergence, 125 g ai/ha, scale 0 to 100 (0 no effect, 100 complete control)): 100% | pest or weed control at 16 g/ha ([5]; Lolium multiflorum, post-emergence, 16 g ai/ha, scale of 0 to 100): 5% | pest or weed control at 31 g/ha ([5]; Lolium multiflorum, post-emergence, 31 g ai/ha, scale 0 to 100): 35% | pest or weed control at 62 g/ha ([5]; Lolium multiflorum, post-emergence, 62 g ai/ha, scale 0 to 100 (0 no effect, 100 complete control)): 20% | pest or weed control at 125 g/ha ([5]; Lolium multiflorum, post-emergence, 125 g ai/ha, scale 0 to 100 (0 no effect, 100 complete control)): 50% | pest or weed control at 16 g/ha ([6]; Alopecurus myosuroides, post-emergence, 16 g ai/ha, scale 0 to 100): 5% | pest or weed control at 31 g/ha ([6]; Alopecurus myosuroides, post-emergence, 31 g ai/ha, scale 0 to 100): 20% | pest or weed control at 62 g/ha ([6]; Alopecurus myosuroides, post-emergence, 62 g ai/ha, scale 0 to 100 (0 no effect, 100 complete control)): 20% | pest or weed control at 125 g/ha ([6]; Alopecurus myosuroides, post-emergence, 125 g ai/ha, scale 0 to 100 (0 no effect, 100 complete control)): 60% | pest or weed control at 16 g/ha ([7]; Setaria faberi, post-emergence, 16 g ai/ha, scale of 0 to 100): 10% | pest or weed control at 31 g/ha ([7]; Setaria faberi, post-emergence, 31 g ai/ha, scale 0 to 100): 10% | pest or weed control at 62 g/ha ([7]; Setaria faberi, post-emergence, 62 g ai/ha, scale 0 to 100 (0 no effect, 100 complete control)): 20% | pest or weed control at 125 g/ha ([7]; Setaria faberi, post-emergence, 125 g ai/ha, scale 0 to 100 (0 no effect, 100 complete control)): 25% | plant injury at 16 g/ha (soybean (Glycine max); Glycine max, post-emergence, 16 g ai/ha, scale of 0 to 100): 50% | plant injury at 31 g/ha (soybean (Glycine max); Glycine max, post-emergence, 31 g ai/ha, scale 0 to 100): 40% | plant injury at 62 g/ha (soybean (Glycine max); Glycine max, post-emergence, 62 g ai/ha, scale 0 to 100 (0 no effect, 100 complete control)): 95% | plant injury at 125 g/ha (soybean (Glycine max); Glycine max, post-emergence, 125 g ai/ha, scale 0 to 100 (0 no effect, 100 complete control)): 95% | plant injury at 16 g/ha ([8]; Brassica napus, post-emergence, 16 g ai/ha, scale of 0 to 100): 65% | plant injury at 31 g/ha ([8]; Brassica napus, post-emergence, 31 g ai/ha, scale 0 to 100): 80% | plant injury at 62 g/ha ([8]; Brassica napus, post-emergence, 62 g ai/ha, scale 0 to 100 (0 no effect, 100 complete control)): 95% | plant injury at 125 g/ha ([8]; Brassica napus, post-emergence, 125 g ai/ha, scale 0 to 100 (0 no effect, 100 complete control)): 98% | Galium plant response rating ([9]; 31 g ai/ha): 90 | Galium plant response rating ([9]; 125 g ai/ha): 90 | Barnyardgrass plant response rating ([10]; 31 g ai/ha): 40 | Barnyardgrass plant response rating ([10]; 125 g ai/ha): 90 | Kochia plant response rating (kochia (Kochia scoparia); 31 g ai/ha): 90 | Kochia plant response rating (kochia (Kochia scoparia); 125 g ai/ha): 90 | Pigweed plant response rating ([11]; 31 g ai/ha): 100 | Pigweed plant response rating ([11]; 125 g ai/ha): 100 | Ryegrass, Italian plant response rating ([12]; 31 g ai/ha): 20 | Ryegrass, Italian plant response rating ([12]; 125 g ai/ha): 80 | Wheat plant response rating ([13]; 31 g ai/ha): 0 | Wheat plant response rating ([13]; 125 g ai/ha): 30 | Blackgrass plant response rating ([14]; 31 g ai/ha): 50 | Blackgrass plant response rating ([14]; 125 g ai/ha): 90 | Ragweed plant response rating ([15]; 31 g ai/ha): 20 | Ragweed plant response rating ([15]; 125 g ai/ha): 30 | Foxtail, Giant plant response rating ([16]; 31 g ai/ha): 70 | Foxtail, Giant plant response rating ([16]; 125 g ai/ha): 90 | Corn plant response rating (corn (Zea mays); 31 g ai/ha): 30 | Corn plant response rating (corn (Zea mays); 125 g ai/ha): 60
